The structures appear in SMILES notation.

These results are taken from ChEMBL document CHEMBL1143634, “Calculating virtual log P in the alkane/water system (log P(N)(alk)) and its derived parameters deltalog P(N)(oct-alk) and log D(pH)(alk)” (J Med Chem, 2005).

This data set in a line: Lipophilicity determined as logarithm of the partition coefficient in the alkane/water system. The following applies: octanol/water.
Consider `c1ccc(-c2ccncc2)cc1`, for which the “Log PNalk” value was found to be 1.58.
The figure for `CSC` is 0.98; for `CNc1ccccc1` it is 1.11.
The result for `Oc1ccccc1Br` reads 1.04.
Take `[O-][n+]1cccc2ccccc21`: the “Log PNalk” value was -2.05.
The result for `Cc1cc(C)cc(O)c1` reads 0.32; that for `COc1ccccc1C(=O)O`, 2.08; that for `[O-][n+]1ccc(-c2ccccc2)cc1`, -2.36.
As for `Cc1ccc(C)c(O)c1`, the “Log PNalk” value was determined as 0.38.
In the case of `[O-][n+]1ccc2ccccc2c1`, the “Log PNalk” value is -2.51.
The result for `CSc1ccccc1` reads 2.81; that for `N#Cc1ccccc1O`, -1.85; that for `CCCCC(C)=O`, 0.87.
The result for `CC(C1=C(CCN(C)C)Cc2ccccc21)c1ccccn1` (stereo not given) reads 1.65.
As to `O=C(O)c1cccc([N+](=O)[O-])c1`, the “Log PNalk” value was -1.22.
Take `Cc1ccc(O)c(C)c1`: the “Log PNalk” value is on record as 0.34.
The result for `CC(C)c1ccccc1O` reads 0.96; that for `Oc1cc(Cl)cc(Cl)c1`, 0.35.
`[O-][S+](c1ccccc1)c1ccccc1`: the “Log PNalk” value came out at 0.67.
`CN(C)c1ccccc1`: the “Log PNalk” value is listed as 2.4.
The result for `CCCC(C)=O` reads 0.43.
The result for `Oc1ccc(C(F)(F)F)cc1` reads -0.15; that for `Oc1cccc(F)c1`, -0.83; that for `CCCCCCCO` [1-HEPTANOL], 1.01.
The figure for `CCCCCO` [1-PENTANOL] is -0.4.
`COc1cccc(O)c1` [1-hydroxy-3-methoxybenzene]: the “Log PNalk” value is -0.88.
The result for `Oc1c(Cl)cccc1Cl` [2,6-DICHLOROPHENOL] reads 1.31; that for `Oc1ccccc1Cl` [2-CHLOROPHENOL], 0.76.
The figure for `Nc1ccccc1[N+](=O)[O-]` [2-NITROANILINE] is 0.31.
For `Nc1cccc(Cl)c1` [3-CHLOROANILINE], the “Log PNalk” value is listed as 0.71.
Take `O=[N+]([O-])c1cccc(O)c1` [3-NITRO-PHENOL]: the “Log PNalk” value is on record as -1.23.
For `Nc1cccc([N+](=O)[O-])c1` [3-NITROANILINE], the “Log PNalk” value is reported as -0.46.
For `Nc1ccc(Cl)cc1` [4-CHLOROANILINE], the “Log PNalk” value was determined as 0.57.
The figure for `N#Cc1ccc(O)cc1` [4-CYANOPHENOL] is -2.29.
The figure for `O=S(=O)(c1ccccc1)c1ccccc1` [(PHENYLSULFONYL)BENZENE] is 1.45; for `CC(=O)Nc1ccccc1` [ACETANILIDE] it is -1.7; for `COC(C)=O` [ACETIC ACID METHYL ESTER] it is -0.26.
With `CCCOC(C)=O` [ACETIC ACID PROPYL ESTER], the “Log PNalk” value amounted to 0.9.
As to `CC(C)=O` [ACETONE], the “Log PNalk” value was -0.91.
The figure for `CC(=O)c1ccccc1` [ACETOPHENONE] is 1.14; for `C[C@]12CCC(=O)C=C1CC[C@@H]1[C@@H]2[C@@H](O)C[C@]2(C=O)[C@@H](C(=O)CO)CC[C@@H]12` [ALDOSTERONE] it is -2.7; for `CC(N)Cc1ccccc1` (stereo not given) [AMPHETAMINE] it is 0.73.
The figure for `Nc1ccccc1` [ANILINE] is 0.03.
For the compound `COc1ccccc1` [ANISOLE], the “Log PNalk” value came to 2.15.
The result for `COc1ccc(CCN2CCC(Nc3nc4ccccc4n3Cc3ccc(F)cc3)CC2)cc1` [ASTEMIZOLE] reads 0.95; that for `CN1CCC(=C2c3ccccc3CCc3cccnc32)CC1` [AZATADINE], 1.82; that for `CCC1(CC)C(=O)NC(=O)NC1=O` [BARBITAL], -2.15.
The figure for `O=Cc1ccccc1` [BENZALDEHYDE] is 1.12; for `N#Cc1ccccc1` [BENZONITRILE] it is 0.9; for `OCc1ccccc1` [BENZYL ALCOHOL] it is -0.62.
The result for `NCc1ccccc1` [BENZYLAMINE] reads -0.21; that for `Oc1ccc2ccccc2c1` [BETANAPHTHOL], 0.3; that for `c1ccc(-c2ccccc2)cc1` [BIPHENYL], 4.
For `Brc1ccccc1` [BROMOBENZENE], the “Log PNalk” value is listed as 3.12.
The figure for `CCC(C)=O` [BUTANONE] is -0.25.
For the compound `CCCCN` [BUTYLAMINE], the “Log PNalk” value was -0.62.
The figure for `O=C(O)CCl` [CHLOROACETIC ACID] is -3.14; for `Clc1ccccc1` [CHLOROBENZENE] it is 2.99.
The figure for `CN(C)CCC(c1ccc(Cl)cc1)c1ccccn1` (stereo not given) [CHLORPHENIRAMINE] is 2.09; for `CN(C)CCCN1c2ccccc2Sc2ccc(Cl)cc21` [CHLORPROMAZINE] it is 4.37.
The figure for `Cc1ncc2c(c1O)COC2c1ccc(Cl)cc1` (stereo not given) [CICLETANINE] is -1.76; for `C[C@]12C[C@H](O)[C@H]3[C@@H](CCC4=CC(=O)CC[C@@]43C)[C@@H]1CC[C@@H]2C(=O)CO` [CORTICOSTERONE] it is -1.62; for `C[C@]12CCC(=O)C=C1CC[C@@H]1[C@@H]2CC[C@@]2(C)[C@H]1CC[C@]2(O)C(=O)CO` [CORTODOXONE] it is -1.
In the case of `C[C@]12CC[C@H]3[C@@H](CCC4=CC(=O)CC[C@@]43C)[C@@H]1CC[C@@H]2C(=O)CO` [DESOXYCORTICOSTERONE], the “Log PNalk” value amounted to 0.48.
As to `O=C([O-])Cc1ccccc1Nc1c(Cl)cccc1Cl.[Na+]` [DICLOFENAC SODIUM], the “Log PNalk” value is listed as 1.72.
The result for `COc1ccc([C@@H]2Sc3ccccc3N(CCN(C)C)C(=O)[C@@H]2OC(C)=O)cc1` [DILTIAZEM] reads 1.37; that for `CN[C@@H](C)[C@H](O)c1ccccc1` [EPHEDRINE], -0.77; that for `NC1=NCC2c3ccccc3Cc3ccccc3N12` (stereo not given) [EPINASTINE], 1.76.
The result for `C[C@]12CC[C@@H]3c4ccc(O)cc4CC[C@H]3[C@@H]1CC[C@@H]2O` [ESTRADIOL] reads -0.2; that for `C[C@]12CC[C@@H]3c4ccc(O)cc4CC[C@H]3[C@@H]1C[C@@H](O)[C@@H]2O` [ESTRIOL], -0.64.
Turning to `C[C@]12CC[C@@H]3c4ccc(O)cc4CC[C@H]3[C@@H]1CCC2=O` [ESTRONE], the “Log PNalk” value came to 0.48.
The result for `CCOC(C)=O` [ETHYL ACETATE] reads 0.29; that for `CCN` [ETHYLAMINE], -1.77; that for `CC1CCc2cc(F)cc3c(=O)c(C(=O)O)cn1c23` (stereo not given) [FLUMEQUINE], -1.37.
On to `Fc1ccccc1` [FLUOROBENZENE], for which the “Log PNalk” value was found to be 2.46.
The result for `CC(C(=O)O)c1ccc(-c2ccccc2)c(F)c1` (stereo not given) [FLURBIPROFEN] reads 1.49; that for `COc1ccccc1O` [GUAIACOL], 0.36; that for `N=C(N)N/N=C/c1c(Cl)cccc1Cl` [GUANABENZ], -1.6.
The figure for `O=C(CCCN1CCC(O)(c2ccc(Cl)cc2)CC1)c1ccc(F)cc1` [HALOPERIDOL] is 1.53.
For the compound `CCCCCC(=O)O` [HEXANOATE], the “Log PNalk” value is given as 0.24.
Take `CN1C(=O)NC(=O)C(C)(C2=CCCCC2)C1=O` (stereo not given) [HEXOBARBITAL]: the “Log PNalk” value is recorded as -0.57.
Turning to `OCCOCCN1CCN(C(c2ccccc2)c2ccc(Cl)cc2)CC1` (stereo not given) [HYDROXYZINE], the “Log PNalk” value was 1.25.
On to `CC(C)Cc1ccc(C(C)C(=O)O)cc1` (stereo not given) [IBUPROFEN], for which the “Log PNalk” value was 2.08.
Turning to `c1ccc2[nH]ccc2c1` [INDOLE], the “Log PNalk” value was determined as 0.68.
On to `COc1ccc2c(c1)c(CC(=O)O)c(C)n2C(=O)c1ccc(Cl)cc1` [INDOMETHACIN], for which the “Log PNalk” value is 0.98.
For the compound `Ic1ccccc1` [IODOBENZENE], the “Log PNalk” value is 3.33.
The figure for `CC(C)CO` [ISOBUTANOL] is -0.98; for `c1ccc2cnccc2c1` [ISOQUINOLINE] it is 1.11.
The result for `CC(C(=O)O)c1cccc(C(=O)c2ccccc2)c1` (stereo not given) [KETOPROFEN] reads 0; that for `COc1ccc(O)cc1` [MEQUINOL], -1.03; that for `Cc1cccc(O)c1` [METACRESOL], -0.35.
As to `CN[C@@H](C)Cc1ccccc1` [METHAMPHETAMINE], the “Log PNalk” value is reported as 1.24.
Turning to `CO` [METHYL ALCOHOL], the “Log PNalk” value was -2.8.
The figure for `COC(=O)c1ccccc1` [METHYL BENZOATE] is 2.13.
As for `CS(=O)(=O)c1ccccc1` [METHYLPHENYLSULFONE], the “Log PNalk” value was -0.87.
The figure for `C[S+]([O-])c1ccccc1` (stereo not given) [METHYLPHENYLSULFOXIDE] is -1.52; for `COCCc1ccc(OCC(O)CNC(C)C)cc1` (stereo not given) [METOPROLOL] it is -0.38.
The result for `CN1CCC[C@H]1c1cccnc1` [NICOTINE] reads 0.03; that for `O=[N+]([O-])c1ccc(/C=N/O)o1` [NIFUROXIME], -1.1; that for `O=[N+]([O-])c1ccccc1` [NITROBENZENE], 1.55.
Turning to `O=[N+]([O-])c1ccccc1O` [NITROPHENOLATE], the “Log PNalk” value was found to be 1.04.
Consider `Cc1ccccc1N` [O-TOLYLAMINE], for which the “Log PNalk” value was 0.47.
For `Cc1ccccc1O` [ORTHOCRESOL], the “Log PNalk” value amounted to 0.25.
The result for `O=[N+]([O-])c1ccc(O)cc1` [P-NITROPHENOL] reads -2.15; that for `COc1ccc(Cc2nccc3cc(OC)c(OC)cc23)cc1OC` [PAPAVERINE], 0.75.
The result for `O=C(O)c1ccc(O)cc1` [PARABEN] reads -1.82.
The result for `Oc1ccc(Cl)cc1` [PARACHLOROPHENOL] reads -0.12; that for `CC(C)(C)NC[C@H](O)COc1ccccc1C1CCCC1` [PENBUTOLOL], 3.06; that for `CCCCC` [PENTANE], 4.18.
Turning to `CCCC(C)C1(CC)C(=O)NC(=O)NC1=O` (stereo not given) [PENTOBARBITAL], the “Log PNalk” value is -1.22.
